Measurements published in patent US20220280661A1, “GLUCOCORTICOID RECEPTOR RADIOLIGANDS AND METHODS FOR THEIR PREPARATION AND USE” (The Regents of the University of California, priority 2019, published 2022).
Read-outs that look alike come from different tables or passages of the source.

Legend:
[1] = molecular target: T1, GR (Mus musculus, UniProt P06537); assay: 11C radiotracer biodistribution with dexamethasone or Dex-CD blocking; assay type: in vivo; conditions: 20 min after injection
T1 construct: from tissue; host or cells: tissues of C57BL6/J mice (intact or adrenalectomized), in vivo
T1 sequence (P06537 1-792): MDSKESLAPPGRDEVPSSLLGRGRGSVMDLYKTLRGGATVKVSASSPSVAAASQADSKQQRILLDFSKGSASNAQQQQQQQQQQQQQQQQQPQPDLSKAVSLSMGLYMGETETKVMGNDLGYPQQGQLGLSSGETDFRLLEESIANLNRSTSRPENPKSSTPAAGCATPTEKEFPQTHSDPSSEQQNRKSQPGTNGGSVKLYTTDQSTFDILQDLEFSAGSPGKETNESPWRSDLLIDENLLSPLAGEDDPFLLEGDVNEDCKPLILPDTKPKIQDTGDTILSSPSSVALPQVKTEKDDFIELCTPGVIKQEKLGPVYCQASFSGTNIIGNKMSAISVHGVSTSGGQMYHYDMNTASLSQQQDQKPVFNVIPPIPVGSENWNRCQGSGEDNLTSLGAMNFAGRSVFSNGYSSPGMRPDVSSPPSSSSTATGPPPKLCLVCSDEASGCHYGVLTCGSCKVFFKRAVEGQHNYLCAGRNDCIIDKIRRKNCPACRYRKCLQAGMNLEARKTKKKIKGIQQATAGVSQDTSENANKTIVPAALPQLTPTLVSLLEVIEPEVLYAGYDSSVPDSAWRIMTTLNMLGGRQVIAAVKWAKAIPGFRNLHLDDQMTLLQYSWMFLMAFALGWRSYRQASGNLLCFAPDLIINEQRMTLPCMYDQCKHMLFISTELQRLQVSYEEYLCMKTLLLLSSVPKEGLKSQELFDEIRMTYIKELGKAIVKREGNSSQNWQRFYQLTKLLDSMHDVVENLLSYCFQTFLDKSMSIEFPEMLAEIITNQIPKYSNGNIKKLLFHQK
Method: Animal Studies. All animal experiments were performed under the approval of the Institutional Animal Care and Use Committee (IACUC) at UCSF. C57BL6/J mice (4-6 weeks) were purchased from Charles River. All the mice were housed in a dedicated vivarium with free access to food and water. […] Adrenalectomized mice were purchased from Charles River and provided drinking water supplemented with NaCl (aq) per instructions until the time of the tracer biodistribution study.
Biodistribution Studies. Mice were euthanized after radiotracer (7.4-18.5 MBq in 100-150 μL) injection with CO2 (g) asphyxiation and dissected at dedicated time points post injection. The blood and tissues were collected, washed, dried, and weighed. The activity of each tissue was measured with a gamma counter. All data was decay corrected. PRISM software was used to express a percentage (% ID/g) of the injected dose per gram of tissue.
The P value indicates the result of an unpaired, two-tailed Student's t test between the respective treatment group and vehicle (n=5/group).
Table 10 summarizes biodistribution data collected 20 minutes after injection of ^11C-YJH02 among two treatment arms receiving vehicle or one intraperitoneal injection of the water-soluble dexamethasone-cyclodextrin complex at 10 mg/kg one hour prior to radiotracer administration. The P value indicates the result of an unpaired, two-tailed Student's t test between the respective treatment group and vehicle (n=5/group).

[2] = Plasma protein binding, rapid equilibrium dialysis, human plasma; assay type: in vitro ADME; conditions: human, plasma, pH 7.4, human plasma
Method: (§1) Plasma Protein Binding Studies. The rapid equilibrium dialysis (RED) device inserts along with a Teflon base plate (Pierce, Rockford, Ill.) were used for the binding studies. The pH of the human or mouse plasma was adjusted to 7.4 prior to the experiment. DMSO stocks (1 mM) were spiked into the plasma to make a final concentration of 2 μM. The spiked plasma solutions (300 μL) were placed into the sample chamber (indicated by the red ring); and 500 μL of PBS buffer, pH 7.4, was placed into the adjacent chamber. The plate was incubated at 37° C. on an orbital shaker (250 rpm) for 4 hours.
(§2) After 4 hours, from the RED plate, aliquots (100 μL) were removed from each side of the insert (plasma and buffer) and dispensed into the 96-well plate. Subsequently, 100 μL of blank plasma was added to the buffer samples and 100 μL of blank buffer was added to all the collected plasma samples. 300 μL of quench solution (50% acetonitrile, 50% methanol, and 0.05% formic acid, warmed up at 37° C.) containing internal standards was added to each well. Plates were sealed, vortexed, and centrifuged at 4° C. for 15 minutes at 4000 rpm. The supernatant was transferred to fresh plates for LC/MS/MS analysis. The sample were analyzed on LC/MS/MS using an AB Sciex API 4000 instrument, coupled to a Shimadzu LC-20AD LC Pump system. Analytical samples were separated using a Waters Atlantis T3 dC18 reverse phase HPLC column (20 mm×2.1 mm) at a flow rate of 0.5 mL/min. The mobile phase consisted of 0.1% formic acid in water (solvent A) and 0.1% formic acid in acetonitrile (solvent B).
(§3) The percentage of test compound bound to protein was calculated by the following equations:
(§4) % Free=(Concentration in buffer chamber/Concentration in plasma chamber)×100%

[3] = tested on: plasma protein; assay: as above; assay type: in vitro ADME; conditions: plasma (rapid equilibrium dialysis device), pH 7.4, human plasma
Method: as §1, §2, §3, §4

[4] = mice given Dex-CD 10 mg/kg intraperitoneal one hour prior to radiotracer
[5] = mice given dexamethasone 50 mg/kg via gavage once daily for three days

CC1=CC(C)(C)Nc2ccc3c(c21)C(Cc1ccc(F)cc1)Oc1cccc(O[11CH3])c1-3 (racemic) [(±)-^11C-YJH08]
radiotracer uptake, Adrenal [1, 4]: 5.67 ± 2.6 % ID/g | radiotracer uptake, Blood [1, 4]: 3.72 ± 0.2 % ID/g | radiotracer uptake, Bone [1, 4]: 1.95 ± 1.6 % ID/g | radiotracer uptake, Brain [1, 4]: 1.40 ± 0.2 % ID/g | radiotracer uptake, Brown Fat [1, 4]: 8.68 ± 2.4 % ID/g | radiotracer uptake, Heart [1, 4]: 5.95 ± 0.7 % ID/g | radiotracer uptake, Kidney [1, 4]: 4.11 ± 0.4 % ID/g | radiotracer uptake, Lg. Int. [1, 4]: 1.38 ± 0.3 % ID/g | radiotracer uptake, Liver [1, 4]: 12.47 ± 0.8 % ID/g | radiotracer uptake, Lung [1, 4]: 5.09 ± 0.7 % ID/g | radiotracer uptake, Muscle [1, 4]: 1.16 ± 0.2 % ID/g | radiotracer uptake, Pancreas [1, 4]: 3.14 ± 0.3 % ID/g | radiotracer uptake, Sm. Int. [1, 4]: 15.72 ± 3.2 % ID/g | radiotracer uptake, Spleen [1, 4]: 5.72 ± 0.7 % ID/g | radiotracer uptake, Stomach [1, 4]: 1.79 ± 0.8 % ID/g | radiotracer uptake, Adrenal [1, 5]: 9.24 ± 3.6 % ID/g | radiotracer uptake, Blood [1, 5]: 4.58 ± 1.9 % ID/g | radiotracer uptake, Bone [1, 5]: 1.06 ± 0.4 % ID/g | radiotracer uptake, Brain [1, 5]: 1.02 ± 0.3 % ID/g | radiotracer uptake, Brown Fat [1, 5]: 4.58 ± 2.3 % ID/g | radiotracer uptake, Heart [1, 5]: 3.86 ± 1.6 % ID/g | radiotracer uptake, Kidney [1, 5]: 2.96 ± 0.9 % ID/g | radiotracer uptake, Lg. Int. [1, 5]: 1.01 ± 0.5 % ID/g | radiotracer uptake, Liver [1, 5]: 5.22 ± 2.7 % ID/g | radiotracer uptake, Lung [1, 5]: 3.39 ± 1.6 % ID/g | radiotracer uptake, Muscle [1, 5]: 0.84 ± 0.4 % ID/g | radiotracer uptake, Pancreas [1, 5]: 1.52 ± 0.7 % ID/g | radiotracer uptake, Sm. Int. [1, 5]: 30.24 ± 12.7 % ID/g | radiotracer uptake, Spleen [1, 5]: 3.71 ± 1.5 % ID/g | radiotracer uptake, Stomach [1, 5]: 0.71 ± 0.2 % ID/g | radiotracer uptake, Adrenal ([1]; mice given vehicle): 17.63 ± 2.9 % ID/g | radiotracer uptake, Blood ([1]; mice given vehicle): 4.82 ± 0.4 % ID/g | radiotracer uptake, Bone ([1]; mice given vehicle): 1.46 ± 0.5 % ID/g | radiotracer uptake, Brain ([1]; mice given vehicle): 1.98 ± 0.1 % ID/g | radiotracer uptake, Brown Fat ([1]; mice given vehicle): 9.52 ± 0.9 % ID/g | radiotracer uptake, Heart ([1]; mice given vehicle): 7.06 ± 0.8 % ID/g | radiotracer uptake, Kidney ([1]; mice given vehicle): 7.22 ± 0.8 % ID/g | radiotracer uptake, Lg. Int. ([1]; mice given vehicle): 1.70 ± 0.3 % ID/g | radiotracer uptake, Liver ([1]; mice given vehicle): 16.25 ± 0.8 % ID/g | radiotracer uptake, Lung ([1]; mice given vehicle): 6.80 ± 0.7 % ID/g | radiotracer uptake, Muscle ([1]; mice given vehicle): 1.85 ± 0.1 % ID/g | radiotracer uptake, Pancreas ([1]; mice given vehicle): 4.64 ± 0.1 % ID/g | radiotracer uptake, Sm. Int. ([1]; mice given vehicle): 28.72 ± 14.5 % ID/g | radiotracer uptake, Spleen ([1]; mice given vehicle): 7.28 ± 1.8 % ID/g | radiotracer uptake, Stomach ([1]; mice given vehicle): 2.62 ± 1.5 % ID/g

COc1cccc2c1-c1ccc3c(c1C(Cc1ccc(F)cc1)O2)C(C)=CC(C)(C)N3 (racemic) [YJH08, 5-(4-fluorobenzyl)-10-methoxy-2,2,4-trimethyl-2,5-dihydro-1H-chromeno[3,4-f]quinoline]
fraction unbound at 4 h, 2 μM ([2]; duplicate, read-out: % Bound (converted)): < 0.0001 | fraction unbound at 4 h, 2 μM ([2]; read-out: % Bound Average (converted)): < 0.0001 | recovery at 4 h, 2 μM [3]: 97.6%
